Laboratory results reported in patent US8153692B2, “Oral preparation for preventing or improving skin dryness” (Kyowa Hakko Bio Co., Ltd., priority 2005, dated 2012).

Test system: HOS:HR-1 mice
Experiment: Skin water content after oral ingestion of citrulline in feed (SKICON-200)
Type: in vivo
Details: CE-2 feed containing 1.0% by weight of L-citrulline, measured weekly from 1 to 5 weeks, relative to CE-2 feed group
Method: HOS:HR-1 mice (male, 5 weeks old, purchased from Charles River Co., Ltd.) were used in the test. The breeding conditions were that the room temperature was 22±2° C., the humidity was 35±15% and a feed and water were freely ingested.
Each test group consisted of 10 mice. A commercially available powder feed CE-2 (manufactured by Clea Japan) was fed to mice of the first group, CE-2 containing 1.0% by weight of L-citrulline (manufactured by Kyowa Hakko Kogyo Co., Ltd.) was fed to mice of the second group.
The water content of the skin surface on the back thigh upper portion of each mouse was measured with SKICON-200 (manufactured by IBS) every one week, from a week to five weeks after the start-up of the feeding of each feed. The measurement was conducted ten times for each mouse, and an average value of each mouse was obtained. Further, an average value of each test group was calculated.
The relative epidermal water content was calculated according to the following formula using the average value. Relative epidermal water content (%)=(A2/A1)×100 • A1: Epidermal water content of the first group • A2: Epidermal water content of the second group

NC(=O)NCCC[C@H](N)C(=O)O [citrulline, L-citrulline]
water content of the skin (relative epidermal water content): markedly improved
